The values that follow are results of earlier work, collected in patent US9464021B2, “Method of preparation of stereospecific quinone derivatives” (priority 2013, dated 2016).

For series [1] the following is noted: in vivo.
The conditions of series [2]: liver fractions.

In the case of `CC1=C(C/C=C(/C)CCC[C@H](C)CCC[C@H](C)CCCC(C)C)C(=O)c2ccccc2C1=O` (relative stereo) [cis-phylloquinone], the “biological activity as vitamin K” value in series [1] is on record as “little or no biological activity as vitamin K”. Also, in series [2], the hepatic subcellular distribution entry is given as “retained preferentially by mitochondria”.
Regarding `CC1=C(C/C=C(\C)CCC[C@H](C)CCC[C@H](C)CCCC(C)C)C(=O)c2ccccc2C1=O` (single isomer, unassigned) [trans isomer, phylloquinone], the “biological activity as vitamin K” value in series [1] is reported as “full potency of the vitamin”. For the same compound, the hepatic subcellular distribution result in series [2] was “associated principally with the microsomal fraction and subfractions”.
